The values that follow are results of earlier work, collected in paper PMC12308805, “Ultrahigh-Throughput Virtual Screening Strategies against PPI Targets: A Case Study of STAT Inhibitors” (Journal of Chemical Information and Modeling, 2025).

One data set relates to STAT3. The note with it: sheet 6QHD_actives_decoys; retrospective screening set for STAT3 SH2 domain (PDB 6QHD); […]; ref DUD-E; cited from earlier work.
On to `Nc1n(-c2ccccc2)c(=O)c(C(c2ccc([N+](=O)[O-])cc2)c2c([O-])[n+](-c3ccccc3)c(N)n(-c3ccccc3)c2=O)c([O-])[n+]1-c1ccccc1` [Decoy514], for which the Type entry is recorded as “Inactive (Decoy)”.
For the compound `COc1ccccc1/C=C/C(=O)NC(=S)Nc1ccc(S(=O)(=O)Nc2cc(C)on2)cc1` [Decoy519], the Type result is listed as “Inactive (Decoy)”.
In the case of `Cc1ccnc(NS(=O)(=O)c2ccc(NC(=O)c3cc([N+](=O)[O-])c(Cl)c([N+](=O)[O-])c3)cc2)n1` [Decoy530], the Type entry was “Inactive (Decoy)”.
For `CCOc1ccc(NS(=O)(=O)c2ccc3c(c2)CC(=O)N3)cc1S(=O)(=O)N1CCCC1` [Decoy537], the Type entry is given as “Inactive (Decoy)”.
Take `COc1ccc(NS(=O)(=O)c2ccc(OC)c(NS(=O)(=O)c3ccc(C#N)cc3)c2)cc1` [Decoy542]: the Type result is “Inactive (Decoy)”.
Consider `COc1ccc(S(=O)(=O)Nc2ccc(S(=O)(=O)Nc3nc(C)cc(C)n3)cc2)cc1F` [Decoy560], for which the Type result is reported as “Inactive (Decoy)”.

Still in this data set, the particulars now being: sheet 6QHD_actives_decoys; retrospective screening set for STAT3 SH2 domain (PDB 6QHD); decoys generated with DUD-E and presumed inactive, not tested; ref DUD-E; cited from earlier work.
Take `COc1cc(/C=N/NC(=O)CC(=O)N/N=C/c2cc(Br)c(O)c(OC)c2)cc(Br)c1O` [Decoy510]: the Type entry is on record as “Inactive (Decoy)”.
Take `O=c1ccn([C@@H]2O[C@@H](CO[P@@](=O)(O)O[P@@](=O)(O)OP(=O)(O)O)[C@@H](O)[C@@H]2O)c(=O)[nH]1` [Decoy511]: the Type entry is recorded as “Inactive (Decoy)”.
Regarding `COc1cc(NC(=O)c2cnn3c2N[C@H](c2cc(OC)c(OC)c(OC)c2)C[C@@H]3C(F)(F)F)cc([N+](=O)[O-])c1` [Decoy512], the Type entry is given as “Inactive (Decoy)”.
Regarding `CCOC(=O)CNC(=O)[C@H](c1ccc(O)cc1)N(C(=O)c1snc(C(N)=O)c1N)c1ccccc1CC` [Decoy513], the Type entry was “Inactive (Decoy)”.
Consider `O=C(O)CN(CC(=O)O)[C@@H](CCCCNC(=S)Nc1ccc(-c2c3ccc(=O)cc-3oc3cc(O)ccc23)c(C(=O)O)c1)C(=O)O` [Decoy515], for which the Type result was “Inactive (Decoy)”.
As for `Cn1c(CNc2ccc(C(=N)N)cc2)nc2cc(C(=O)N(CCC(=O)O[C@@H]3O[C@H](C(=O)O)[C@@H](O)[C@H](O)[C@H]3O)c3ccccn3)ccc21` [Decoy516], the Type result is recorded as “Inactive (Decoy)”.
With `CCOC(=O)c1sc(N/N=C(\C(=O)Nc2cccc(OC)c2)C(=O)c2ccc([N+](=O)[O-])cc2)c(C(=O)OCC)c1C` [Decoy517], the Type entry is “Inactive (Decoy)”.
Take `CCNS(=O)(=O)c1ccc(C)c(C(=O)OCC(=O)NNC(=O)c2ccccc2Cl)c1` [Decoy518]: the Type entry was “Inactive (Decoy)”.
Regarding `CCOc1ccc(-n2c(CNC(=O)c3ccc(S(=O)(=O)N(C)C)cc3)nnc2SCC(=O)Nc2cccc(C)c2)cc1` [Decoy520], the Type result was “Inactive (Decoy)”.
For `CCCc1nc(C(C)(C)O[C@@H]2O[C@H](C(=O)O)[C@@H](O)[C@H](O)[C@H]2O)c(C(=O)O)n1Cc1ccc(-c2ccccc2-c2nnn[nH]2)cc1` [Decoy521], the Type result was “Inactive (Decoy)”.
As for `CCOC(=O)Cc1csc(NC(=O)CSc2nnc(Cc3csc(N)n3)n2C)n1` [Decoy522], the Type result is on record as “Inactive (Decoy)”.
In the case of `Cc1nnc(SCC2=C(C(=O)NCC(C)C)N3C(=O)[C@H](NC(=O)c4nn(C)c(C)c4Br)[C@H]3SC2)s1` [Decoy523], the Type entry was “Inactive (Decoy)”.
Regarding `C[C@@]12CCC[C@@](C)(C(=O)O[C@@H]3O[C@@H](CO)[C@@H](O)[C@@H](O)[C@H]3O)[C@H]1CC[C@]13C[C@H](CC[C@H]12)[C@@](CO)(O[C@@H]1O[C@@H](CO)[C@@H](O)[C@@H](O)[C@H]1O)C3` [Decoy524], the Type entry is “Inactive (Decoy)”.
Consider `C[C@@H](OC(=O)CCC(=O)Nc1ccc(C(=O)OCC(=O)c2cccc([N+](=O)[O-])c2)cc1)C(=O)c1cccc(Cl)c1` [Decoy525], for which the Type entry was “Inactive (Decoy)”.
Regarding `O=C(NCCCN1CCN(CCCNC(=O)c2cc3ccccc3oc2=O)CC1)c1cc2ccccc2oc1=O` [Decoy526], the Type entry was “Inactive (Decoy)”.
In the case of `COc1ccc([C@H]2Oc3c(OC)cc(CCCO)cc3[C@@H]2CO)cc1O[C@@H]1O[C@@H](CO)[C@@H](O)[C@@H](O)[C@@H]1O` [Decoy527], the Type entry is given as “Inactive (Decoy)”.
As for `COc1ccc(OC)c(-n2c(CNC(=O)c3ccc(S(=O)(=O)N(C)C)cc3)nnc2SCC(=O)Nc2ccc(F)cc2)c1` [Decoy528], the Type result is given as “Inactive (Decoy)”.
Take `COC(=O)CNC(=O)c1ccc(NC(=O)c2nc(NCc3ccco3)ncc2Cl)cc1` [Decoy529]: the Type entry was “Inactive (Decoy)”.
Take `COc1ccc(C(=O)NCCc2nnc3ccc(SCC(=O)Nc4ccc(OC(F)(F)F)cc4)nn23)cc1` [Decoy531]: the Type result is “Inactive (Decoy)”.
Consider `C[C@H](CCC(=O)NCC(=O)NCCS(=O)(=O)O)[C@H]1CC[C@H]2[C@@H]3[C@H](O)C[C@@H]4C[C@H](O)CC[C@]4(C)[C@H]3C[C@H](O)[C@]12C` [Decoy532], for which the Type result is listed as “Inactive (Decoy)”.
With `CCOC(=O)c1c(NC(=O)[C@@H](C)Sc2nnc(CNC(=O)c3cc(OC)cc(OC)c3)n2C)sc2c1CCC2` [Decoy533], the Type result is on record as “Inactive (Decoy)”.
On to `CCOc1ccc(S(=O)(=O)NC[C@@H](c2cccnc2)S(=O)(=O)c2ccc(OCC)cc2)cc1` [Decoy534], for which the Type entry is given as “Inactive (Decoy)”.
As for `CC1(C)CC[C@]2(C(=O)O[C@@H]3O[C@H](CO)[C@@H](O)[C@H](O)[C@H]3O)[C@H](O)C[C@]3(C)C(=CC[C@@H]4[C@@]5(C)CC[C@H](O[C@@H]6OC[C@H](O)[C@H](O)[C@H]6O)[C@@](C)(CO)[C@@H]5CC[C@]43C)[C@@H]2C1` [Decoy535], the Type result is reported as “Inactive (Decoy)”.
As to `CC(C)(C)OC(=O)N[C@H](CSSC[C@@H](NC(=O)OC(C)(C)C)C(=O)OC[C@H]1O[C@H](O)[C@@H](O)[C@@H](O)[C@H]1O)C(=O)OC[C@H]1O[C@H](O)[C@@H](O)[C@@H](O)[C@H]1O` [Decoy536], the Type entry is “Inactive (Decoy)”.
Consider `COc1ccccc1NS(=O)(=O)c1ccc(O)c(C(=O)OCC(=O)c2ccc3c(c2)NC(=O)CO3)c1` [Decoy538], for which the Type entry is listed as “Inactive (Decoy)”.
With `CC1(C)NC(=O)N(C[C@@H](O)COc2ccc(-c3ccc(OC[C@H](O)CN4C(=O)NC(C)(C)C4=O)cc3)cc2)C1=O` [Decoy539], the Type entry is reported as “Inactive (Decoy)”.
As to `CCCNC(=O)CN1CCN(c2cc(C(=O)O)c3cc(NS(=O)(=O)c4cccs4)ccc3n2)CC1` [Decoy543], the Type result was “Inactive (Decoy)”.
`CC1=C(/C(O)=N/c2ccc(S(N)(=O)=O)cc2)[C@@H](c2ccco2)C(C#N)=C(SCC(=O)Nc2ccc(F)cc2)N1` [Decoy544]: the Type entry is listed as “Inactive (Decoy)”.
Take `CC(=O)OC[C@@H]1O[C@H](n2c(=O)[nH]c(=O)c3n[nH]nc32)[C@@H](OC(C)=O)[C@H](OC(C)=O)[C@H]1OC(C)=O` [Decoy545]: the Type result is “Inactive (Decoy)”.
On to `O=C(O)CCCNC(=O)C(NC(=O)CCSSCCNC(=O)CCCC[C@@H]1SC[C@@H]2NC(=O)N[C@@H]21)C(=O)NCCCC(=O)O` [Decoy546], for which the Type entry is reported as “Inactive (Decoy)”.
With `CO[C@@H]1O[C@@H]2CO[C@@H](c3ccccc3)O[C@H]2[C@H](O[C@@H]2O[C@H](COC(C)=O)[C@H](OC(C)=O)[C@H](OC(C)=O)[C@H]2OC(C)=O)[C@H]1NC(C)=O` [Decoy547], the Type entry was “Inactive (Decoy)”.
Turning to `O=P(O)(O)CCN1CCCN(CCP(=O)(O)O)CCN(CCP(=O)(O)O)CCCN(CCP(=O)(O)O)CC1` [Decoy548], the Type result is given as “Inactive (Decoy)”.
As for `COc1ccc(CCC(=O)O)c([C@H](CC(=O)O)C(=O)O)c1OS(=O)(=O)c1ccc(C)cc1` [Decoy549], the Type entry was “Inactive (Decoy)”.
On to `COc1ccc(-n2c(=O)[nH]c3cc([C@@H]4N[C@@H](c5ccc(OC)c(OC)c5)NO4)ccc3c2=O)cc1` [Decoy550], for which the Type entry is listed as “Inactive (Decoy)”.
With `CCOc1cc(/C=N/N=C2\NC(=O)[C@@H](CC(=O)O)S2)cc(Br)c1OS(=O)(=O)c1ccc(C)cc1` [Decoy551], the Type entry was “Inactive (Decoy)”.
On to `CCOC(=O)c1ccc(/N=C2\S[C@@H](CC(=O)Nc3ccc(C(=O)OCC)cc3)C(=O)N2CCc2ccc(Cl)cc2)cc1` [Decoy552], for which the Type entry was “Inactive (Decoy)”.
Regarding `CCOC(=O)c1ccc(/N=C2\S[C@H](CC(=O)Nc3ccc(C(=O)OCC)cc3)C(=O)N2CCc2ccc(Cl)cc2)cc1` [Decoy553], the Type result was “Inactive (Decoy)”.
In the case of `C=CCn1c(SCC(=O)Nc2sc(C(=O)OCC)c(C)c2C(=O)OCC)nc2sc3c(c2c1=O)CCCC3` [Decoy554], the Type result was “Inactive (Decoy)”.
In the case of `O=S(=O)(O)c1cc(S(=O)(=O)O)c2c(/N=N/c3ccc([C@H](c4ccc(/N=N/c5ccc(O)cc5)cc4)C4CCCCC4)cc3)c(O)ccc2c1` [Decoy555], the Type result was “Inactive (Decoy)”.
Consider `COc1cc(-c2c(-c3cc(Br)c(O)c(OC)c3)oc(/C=N/NC(=O)C[N+](C)(C)C)c2[N+](=O)[O-])cc(Br)c1[O-]` [Decoy556], for which the Type entry was “Inactive (Decoy)”.
With `CCCCCCCCCCC/C=C/C(=O)N[C@H]1[C@@H](O[C@H]2O[C@@H](CO)[C@@H](O)[C@@H](O)[C@H]2NC(C)=O)O[C@@H](C[C@H](O)[C@H]2O[C@@H](n3ccc(=O)[nH]c3=O)[C@@H](O)[C@H]2O)[C@@H](O)[C@H]1O` [Decoy557], the Type entry was “Inactive (Decoy)”.
For the compound `CCCCCCCCCCC/C=C/C(=O)N[C@@H]1[C@@H](O[C@H]2O[C@@H](CO)[C@@H](O)[C@@H](O)[C@H]2NC(C)=O)O[C@@H](C[C@H](O)[C@H]2O[C@@H](n3ccc(=O)[nH]c3=O)[C@@H](O)[C@H]2O)[C@@H](O)[C@H]1O` [Decoy558], the Type result was “Inactive (Decoy)”.
On to `COc1cc(/C=N/Nc2nnc(SCC(=O)NCCc3ccc(Cl)cc3)n2N)cc(OC)c1OC` [Decoy559], for which the Type entry is reported as “Inactive (Decoy)”.
As to `CC(=O)N[C@@H](C=O)C[C@@H](O[C@@H]1O[C@H](COC(C)=O)[C@H](OC(C)=O)[C@H](OC(C)=O)[C@H]1OC(C)=O)[C@H](O)[C@H](O)CO` [Decoy561], the Type entry was “Inactive (Decoy)”.
As to `C=CCOC(=O)c1sc(NC(=O)[C@@H](C)n2c(N)nnc2SCc2ccccc2Cl)nc1C` [Decoy562], the Type entry is on record as “Inactive (Decoy)”.
Turning to `Cc1ccc(Nc2cc(C)nc3cc(C(F)(F)F)ccc23)c(Br)c1` [Decoy563], the Type entry was “Inactive (Decoy)”.
